As a reminder, the IC50 is the midpoint of a concentration-inhibition curve. The term Ki denotes the dissociation constant of the complex between target and ligand, obtained from inhibition or displacement.

In test [1] the target is Receptor tyrosine-protein kinase erbB-2 (Homo sapiens, UniProt P04626). Description: Inhibition of ErbB-2 intracellular domain (unknown origin) purified from a baculovirus expression system using Biotin-(amino hexonoic acid)-EEEEYFELVAKKK-CONH2 as substrate after 10 mins by scintillation counting in presence of [gamma-33P]ATP.
The target of a further test is Adenosine kinase (Homo sapiens, UniProt P55263). Description: Inhibition of adenosine kinase (unknown origin).
Test [2] deals with T1, Dihydrofolate reductase (Homo sapiens, UniProt P00374).
T1 sequence (P00374 whole entry): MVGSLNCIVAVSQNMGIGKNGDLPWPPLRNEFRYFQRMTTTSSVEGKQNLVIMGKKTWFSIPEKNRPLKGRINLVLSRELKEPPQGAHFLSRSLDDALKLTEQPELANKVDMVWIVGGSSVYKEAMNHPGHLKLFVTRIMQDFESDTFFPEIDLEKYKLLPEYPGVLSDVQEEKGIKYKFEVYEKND
Description: Inhibition of recombinant human DHFR expressed in Escherichia coli Rosetta Gami B (DE3) by spectrophotometric assay.

Test [3] concerns the target T2, Dihydrofolate reductase (Pneumocystis carinii, UniProt P16184).
T2 sequence (P16184 whole entry): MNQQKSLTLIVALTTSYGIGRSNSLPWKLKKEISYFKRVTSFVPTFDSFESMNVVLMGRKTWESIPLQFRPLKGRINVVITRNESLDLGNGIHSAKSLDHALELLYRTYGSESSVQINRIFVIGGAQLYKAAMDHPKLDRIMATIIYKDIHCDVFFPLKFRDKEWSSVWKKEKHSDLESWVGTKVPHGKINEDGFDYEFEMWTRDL
Description: Inhibition of recombinant Pneumocystis carinii DHFR expressed in Escherichia coli Rosetta Gami B (DE3) by spectrophotometric assay.

The target in test [4] is Dihydrofolate reductase (Pneumocystis carinii, UniProt P16184, K37Q). Description: Inhibition of Pneumocystis carinii DHFR K37Q mutant by spectrophotometric assay.
Test [5] is described as follows: Inhibition of recombinant Pneumocystis jirovecii DHFR expressed in Escherichia coli Rosetta Gami B (DE3) by spectrophotometric assay.
Test [6] in a line: Inhibition of Pneumocystis carinii DHFR K37Q/F69N mutant by spectrophotometric assay.
A short description of test [7]: Inhibition of human DHFR mutant by spectrophotometric assay.
Test [8] is described as follows: Inhibition of Pneumocystis jirovecii DHFR.

Chain of Receptor tyrosine-protein kinase erbB-2 (P04626 whole entry, the tested form may be a part): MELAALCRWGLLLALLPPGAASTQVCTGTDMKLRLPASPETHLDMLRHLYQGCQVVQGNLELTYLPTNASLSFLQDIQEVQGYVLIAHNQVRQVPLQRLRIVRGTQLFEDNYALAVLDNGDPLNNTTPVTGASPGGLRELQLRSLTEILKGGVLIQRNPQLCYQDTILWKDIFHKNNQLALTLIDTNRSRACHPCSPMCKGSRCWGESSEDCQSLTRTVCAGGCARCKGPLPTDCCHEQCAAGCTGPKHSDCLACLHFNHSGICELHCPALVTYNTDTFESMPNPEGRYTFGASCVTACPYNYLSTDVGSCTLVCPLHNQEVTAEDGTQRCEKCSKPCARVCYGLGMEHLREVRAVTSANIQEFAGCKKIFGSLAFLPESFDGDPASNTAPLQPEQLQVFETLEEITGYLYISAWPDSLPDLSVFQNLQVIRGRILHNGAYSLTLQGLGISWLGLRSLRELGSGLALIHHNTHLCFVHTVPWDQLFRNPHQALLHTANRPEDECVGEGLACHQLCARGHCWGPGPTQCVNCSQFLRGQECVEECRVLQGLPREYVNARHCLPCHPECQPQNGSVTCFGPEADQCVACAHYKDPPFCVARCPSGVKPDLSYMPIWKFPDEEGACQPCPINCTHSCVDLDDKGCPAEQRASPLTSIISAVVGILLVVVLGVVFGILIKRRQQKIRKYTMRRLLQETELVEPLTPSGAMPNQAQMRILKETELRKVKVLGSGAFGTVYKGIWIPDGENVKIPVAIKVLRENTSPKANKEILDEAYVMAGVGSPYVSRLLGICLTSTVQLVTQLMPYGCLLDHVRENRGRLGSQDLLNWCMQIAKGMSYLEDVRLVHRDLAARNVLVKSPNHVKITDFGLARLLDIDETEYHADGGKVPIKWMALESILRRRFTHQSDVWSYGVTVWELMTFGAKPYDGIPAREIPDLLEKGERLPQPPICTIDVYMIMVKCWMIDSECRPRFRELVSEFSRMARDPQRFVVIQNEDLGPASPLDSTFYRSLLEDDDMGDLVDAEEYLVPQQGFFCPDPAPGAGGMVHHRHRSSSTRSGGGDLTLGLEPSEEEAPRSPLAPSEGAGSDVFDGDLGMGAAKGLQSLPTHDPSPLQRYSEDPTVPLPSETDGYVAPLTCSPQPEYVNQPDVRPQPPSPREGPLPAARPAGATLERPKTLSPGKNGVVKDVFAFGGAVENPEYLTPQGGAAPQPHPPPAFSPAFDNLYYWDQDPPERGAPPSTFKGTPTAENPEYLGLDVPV
Chain of Adenosine kinase (P55263 whole entry): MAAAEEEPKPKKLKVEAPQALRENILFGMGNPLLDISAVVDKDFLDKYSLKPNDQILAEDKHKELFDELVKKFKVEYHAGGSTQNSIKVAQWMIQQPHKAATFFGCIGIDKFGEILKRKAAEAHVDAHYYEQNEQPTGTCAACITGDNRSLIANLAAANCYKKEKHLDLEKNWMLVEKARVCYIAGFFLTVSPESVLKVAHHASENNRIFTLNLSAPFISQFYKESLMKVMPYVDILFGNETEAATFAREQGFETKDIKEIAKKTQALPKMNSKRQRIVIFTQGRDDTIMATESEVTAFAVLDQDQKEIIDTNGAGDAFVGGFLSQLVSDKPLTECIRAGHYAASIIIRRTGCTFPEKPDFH
Chain of Dihydrofolate reductase (Pneumocystis carinii, UniProt P16184, K37Q) (P16184 whole entry K37Q): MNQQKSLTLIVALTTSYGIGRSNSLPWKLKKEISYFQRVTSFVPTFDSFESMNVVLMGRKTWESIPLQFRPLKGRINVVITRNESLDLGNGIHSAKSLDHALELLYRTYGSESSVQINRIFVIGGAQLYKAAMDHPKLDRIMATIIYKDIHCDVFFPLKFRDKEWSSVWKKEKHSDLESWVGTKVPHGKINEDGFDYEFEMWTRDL

As for `CS(=O)(=O)CCNCc1ccc(-c2cc3c(Nc4ccc(OCc5ccccc5)cc4)ncnc3cn2)o1`, in test [1], the IC50 was 26 nM.

As to `[O-][S+]1CCN(Cc2ccc(-c3cc4c(Nc5ccc(OCc6cccc(F)c6)cc5)ncnc4cn3)o2)CC1`, the IC50 in [1] is 21 nM.

As for `Nc1ncnc2nc(-c3ccc(N4CCOCC4)nc3)cc(-c3cccc(Br)c3)c12`, the IC50 at Adenosine kinase came out at 2 nM.

`Nc1nc(N)c2cc(CNc3cc(Cl)ccc3Cl)cnc2n1`: the inhibition constant (Ki) turned out to be 24.4 nM at Dihydrofolate reductase [2]; 6.3 nM on Dihydrofolate reductase [3]; 0.26 nM on Dihydrofolate reductase [4]; 2.7 nM in [5]; 0.71 nM in test [6]; 0.58 nM in [7]. Turning to `CN(CCO)c1cc2c(Nc3ccc4c(cnn4Cc4ccccc4)c3)ncnc2cn1`, in test [1], the IC50 stood at 30 nM. The same measure, in the same setting: under `CN(C)c1cc2c(Nc3ccc4c(cnn4Cc4ccccc4)c3)ncnc2cn1` [GW282974X] stands 16 nM. As for `CN(c1cc(F)c(F)c(F)c1)c1cnc2nc(N)nc(N)c2c1`, the IC50 in test [8] is 4.2 nM.
